The values below come from PMC6757277, “Structural Basis of Glycerophosphodiester Recognition by the Mycobacterium tuberculosis Substrate-Binding Protein UgpB” (ACS Chemical Biology, 2019).

As usually defined, the Kd is the concentration at which binding is half-saturated. A low value points to higher affinity.

The target of the test is Mtb UgpB (Mycobacterium tuberculosis, UniProt P71619). Briefly: biochemical.
Mtb UgpB, sequence (P71619 entry or part of it): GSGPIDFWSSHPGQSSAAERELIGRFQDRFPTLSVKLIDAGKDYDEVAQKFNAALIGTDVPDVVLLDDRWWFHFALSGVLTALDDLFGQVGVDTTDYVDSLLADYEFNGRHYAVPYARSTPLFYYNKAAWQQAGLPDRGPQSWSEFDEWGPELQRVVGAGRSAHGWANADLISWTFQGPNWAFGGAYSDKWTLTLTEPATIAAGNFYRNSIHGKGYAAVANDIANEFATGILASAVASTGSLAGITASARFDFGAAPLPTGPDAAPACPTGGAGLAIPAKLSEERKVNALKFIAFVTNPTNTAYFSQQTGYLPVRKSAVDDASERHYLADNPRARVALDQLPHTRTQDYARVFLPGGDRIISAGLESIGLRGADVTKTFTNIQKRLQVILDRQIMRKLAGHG

The compound `O=P(O)(OC[C@H](O)CO)O[C@@H]1[C@H](O)[C@H](O)[C@@H](O)[C@H](O)[C@H]1O` [GPI, glycerophosphoinositol] showed a Kd of 1050 ± 313 µM.
Compound `O=P(O)(O)O[C@H]1[C@H](O)[C@@H](O)[C@H](OP(=O)(O)OC[C@H](O)CO)[C@H](O)[C@@H]1O` [GPI4P, glycerophosphoinositol-4-phosphate] showed a Kd of 290 ± 54.1 µM.
